Activity calls are given as the source filed them. The calls are words filed in the database; no cut-off is given here.
Columns and labels:
NCI-H187 = assay: Cytotoxicity against human NCI-H187 cells up to 38 uM by SRB assay; format: functional, cell-based
KB = assay: Cytotoxicity against human KB cells up to 38 uM by SRB assay; format: functional, cell-based
BC = assay: Cytotoxicity against human BC cells up to 38 uM by SRB assay; format: functional, cell-based
Plasmodium falciparum = assay: Antimalarial activity against Plasmodium falciparum K1 infected human A+ erythrocytes by [3H]hypoxanthine uptake; format: functional, organism-based
Vero = assay: Cytotoxicity against african green monkey Vero cells by SRB assay; format: cell-based; settings: chlorocebus sabaeus

IC50 (Plasmodium falciparum): 8 µM
SMILES: CC[C@@H](C)[C@H](N)C(=O)N(C)[C@H](Cc1ccccc1)C(=O)N[C@@H](CC(C)C)C(=O)Nc1ccccc1C(=O)O [HIRSUTELLIC ACID A]
Activity (NCI-H187): inactive
Activity (KB): inactive
Activity (BC): inactive
Activity (Vero): Non-toxic
